According to patent US12528788B2, “Pesticidally active benzene- and azine-amide compounds” (SYNGENTA CROP PROTECTION AG, priority 2018, dated 2026):

How the values were obtained:
Format in all cases: in vivo
[1] = system: Plutella xylostella; test: Example B5: Plutella xylostella (diamond back moth), artificial diet, 24-well, eggs; settings: 192 h, application rate of 200 ppm, 8 days after infestation, read-out: control in at least one of the two categories (mortality or growth inhibition)
Description: Example B5: Plutella xylostella (Diamond Back Moth)
24-well microtiter plates with artificial diet were treated with aqueous test solutions prepared from 10′000 ppm DMSO stock solutions by pipetting. After drying, Plutella eggs were pipetted through a plastic stencil onto a gel blotting paper and the plate was closed with it. The samples were assessed for mortality and growth inhibition in comparison to untreated samples 8 days after infestation.

[2] = system: Plutella xylostella; test: Example B14: Plutella xylostella (diamondback moth), 96-well artificial diet; settings: 216 h, application rate of 500 ppm, 9 days after infestation
Description: Example B14: Plutella xylostella (Diamondback Moth)
96-well microtiter plates containing artificial diet were treated with aqueous test solutions, prepared from 10′000 ppm DMSO stock solutions, by a liquid handling robot. After drying, eggs (˜30 per well) were infested onto a netted lid which was suspended above the diet. The eggs hatch and L1 larvae move down to the diet. The samples were assessed for mortality 9 days after infestation.

[3] = system: Myzus persicae; test: Example B8: Myzus persicae (green peach aphid) intrinsic activity; settings: 120 h, test rate of 12 ppm, 5 days after infestation, sucrose solution
Excerpt: Example B8: Myzus persicae (Green Peach Aphid). Intrinsic Activity
Test compounds prepared from 10′000 ppm DMSO stock solutions were applied by pipette into 24-well microtiter plates and mixed with sucrose solution. The plates were closed with a stretched Parafilm. A plastic stencil with 24 holes was placed onto the plate and infested pea seedlings were placed directly on the Parafilm. The infested plate was closed with a gel blotting paper and another plastic stencil and then turned upside down. The samples were assessed for mortality 5 days after infestation.

[4] = system: Chilo suppressalis; test: Example B4: Chilo suppressalis (striped rice stemborer), artificial diet, L2 larvae; settings: 144 h, application rate of 200 ppm, 6 days after infestation, read-out: control in at least one of the three categories (mortality, anti-feedant effect or growth inhibition)
Description: Example B4: Chilo suppressalis (Striped Rice Stemborer)
24-well microtiter plates with artificial diet were treated with aqueous test solutions prepared from 10′000 ppm DMSO stock solutions by pipetting. After drying, the plates were infested with L2 larvae (6-8 per well). The samples were assessed for mortality, anti-feeding effect, and growth inhibition in comparison to untreated samples 6 days after infestation. Control of Chilo suppressalis by a test sample is given when at least one of the categories mortality, anti-feedant effect, and growth inhibition is higher than the untreated sample.

[5] = system: Euschistus heros; test: Example B2: Euschistus heros (neotropical brown stink bug), soybean leaves sprayed, N2 nymphs; settings: 120 h, application rate of 200 ppm, 5 days after infestation, N2 nymphs on soybean leaves, read-out: control in at least one of the two categories (mortality or growth inhibition)
Description: Example B2: Euschistus heros (Neotropical Brown Stink Bug)
Soybean leaves on agar in 24-well microtiter plates were sprayed with aqueous test solutions prepared from 10′000 ppm DMSO stock solutions. After drying the leaves were infested with N2 nymphs. The samples were assessed for mortality and growth inhibition in comparison to untreated samples 5 days after infestation.

[6] = system: Diabrotica balteata; test: Example B1: Diabrotica balteata (corn root worm), maize sprouts sprayed, L2 larvae; settings: 96 h, application rate of 200 ppm, 4 days after infestation, L2 larvae on maize sprouts, read-out: control in at least one of the two categories (mortality or growth inhibition)
Description: Example B1: Diabrotica balteata (Corn Root Worm)
Maize sprouts placed onto an agar layer in 24-well microtiter plates were treated with aqueous test solutions prepared from 10′000 ppm DMSO stock solutions by spraying. After drying, the plates were infested with L2 larvae (6 to 10 per well). The samples were assessed for mortality and growth inhibition in comparison to untreated samples 4 days after infestation.

[7] = system: Spodoptera littoralis; test: Example B9: Spodoptera littoralis (Egyptian cotton leaf worm), cotton leaf discs sprayed, L1 larvae; settings: foliar, 72 h, application rate of 200 ppm, 3 days after infestation, read-out: control in at least one of the three categories (mortality, anti-feedant effect or growth inhibition)
[8] = system: Thrips tabaci; test: Example B12: Thrips tabaci (onion thrips) feeding/contact activity; settings: foliar, 144 h, application rate of 200 ppm, 6 days after infestation, sunflower leaf discs
Description: Example B12: Thrips tabaci (Onion Thrips) Feeding/Contact Activity
(§1) Sunflower leaf discs were placed on agar in 24-well microtiter plates and sprayed with aqueous test solutions prepared from 10′000 ppm DMSO stock solutions. After drying the leaf discs were infested with a Thrips population of mixed ages. The samples were assessed for mortality 6 days after infestation.

[9] = system: Myzus persicae; test: Example B13: Myzus persicae (green peach aphid), 96-well sucrose solution; settings: 120 h, application rate of 50 ppm, 5 days after infestation
Excerpt: Example B13: Myzus persicae (Green Peach Aphid)
Test compounds prepared from 10′000 ppm DMSO stock solutions were applied by a liquid handling robot into 96-well microtiter plates and mixed with a sucrose solution. Parafilm was stretched over the 96-well microtiter plate and a plastic stencil with 96 holes was placed onto the plate. Aphids were sieved into the wells directly onto the Parafilm. The infested plates were closed with a gel blotting card and a second plastic stencil and then turned upside down. The samples were assessed for mortality 5 days after infestation.

[10] = system: Frankliniella occidentalis; test: Example B3: Frankliniella occidentalis (western flower thrips) feeding/contact activity; settings: foliar, 168 h, application rate of 200 ppm, 7 days after infestation, sunflower leaf discs, mixed ages
Description: Example B3: Frankliniella occidentalis (Western Flower Thrips) Feeding/Contact Activity
as §1, with “[…]” for “10′000 ppm”, “Frankliniella” for “Thrips”, “7” for “6”

[11] = system: Myzus persicae; test: Example B6: Myzus persicae (green peach aphid) feeding/contact activity; settings: foliar, 144 h, application rate of 200 ppm, 6 days after infestation, sunflower leaf discs
Description: Example B6: Myzus persicae (Green Peach Aphid) Feeding/Contact Activity
Sunflower leaf discs were placed onto agar in a 24-well microtiter plate and sprayed with aqueous test solutions prepared from 10′000 ppm DMSO stock solutions. After drying, the leaf discs were infested with an aphid population of mixed ages. The samples were assessed for mortality 6 days after infestation.

[12] = system: Spodoptera littoralis; test: Example B10: Spodoptera littoralis (Egyptian cotton leaf worm), uptake by lettuce roots from agar; settings: 144 h, test rate of 12.5 ppm, 6 days after infestation, lettuce grown on treated agar, read-out: control in at least one of the three categories (mortality, anti-feeding, or growth inhibition)
Excerpt: Example B10: Spodoptera littoralis (Egyptian Cotton Leaf Worm)
Test compounds were applied by pipette from 10′000 ppm DMSO stock solutions into 24-well plates and mixed with agar. Lettuce seeds were placed onto the agar and the multi well plate was closed by another plate which contained also agar. After 7 days the compound was absorbed by the roots and the lettuce grew into the lid plate. The lettuce leaves were then cut off into the lid plate. Spodoptera eggs were pipetted through a plastic stencil onto a humid gel blotting paper and the lid plate was closed with it. The samples were assessed for mortality, anti-feedant effect and growth inhibition in comparison to untreated samples 6 days after infestation.

[13] = system: Tetranychus urticae; test: Example B11: Tetranychus urticae (two-spotted spider mite) feeding/contact activity; settings: foliar, 192 h, application rate of 200 ppm, 8 days after infestation, bean leaf discs, mixed population (mobile stages)
Description: Example B11: Tetranychus urticae (Two-Spotted Spider Mite): Feeding/Contact Activity
as §1, with “Bean” for “Sunflower”, “discs” for “discs were placed”, “were” for “and”, “mite” for “Thrips”, “on mixed population (mobile stages) 8” for “6”

[14] = system: Myzus persicae; test: Example B7: Myzus persicae (green peach aphid) systemic activity; settings: 144 h, test rate of 24 ppm, 6 days after placing seedlings into test solutions, pea seedlings
Description: Example B7: Myzus persicae (Green Peach Aphid) Systemic Activity
Roots of pea seedlings infested with an aphid population of mixed ages were placed directly into aqueous test solutions prepared from 10′000 DMSO stock solutions. The samples were assessed for mortality 6 days after placing seedlings into test solutions.

CC(c1nccnc1-c1ncccn1)N(CC1CC1)C(=O)c1cc(C(F)(F)F)cc(C(F)(F)F)c1 (centres unmarked) [Compound P5, N-(cyclopropylmethyl)-N-[1-(3-pyrimidin-2-ylpyrazin-2-yl)ethyl]-3,5-bis(trifluoromethyl)benzamide]
≥ 80%: percent control (mortality or growth inhibition) at 200 ppm [1] | mortality at 500 ppm [2] | mortality at 12 ppm [3] | percent control (mortality, anti-feedant effect or growth inhibition) at 200 ppm [4] | percent control (mortality or growth inhibition) at 200 ppm [5] | percent control (mortality or growth inhibition) at 200 ppm [6] | percent control (mortality, anti-feedant effect or growth inhibition) at 200 ppm [7] | mortality at 200 ppm [8] | mortality at 50 ppm [9]

CC(NC(=O)c1cc(SC(F)(F)F)cc(C(F)(F)F)c1)c1nccnc1-c1ncccn1 (centres unmarked) [Compound P19, N-[1-(3-pyrimidin-2-ylpyrazin-2-yl)ethyl]-3-(trifluoromethyl)-5-(trifluoromethylsulfanyl)benzamide]
≥ 80%: percent control (mortality or growth inhibition) at 200 ppm [1] | mortality at 500 ppm [2] | mortality at 12 ppm [3] | percent control (mortality, anti-feedant effect or growth inhibition) at 200 ppm [4] | percent control (mortality or growth inhibition) at 200 ppm [6] | percent control (mortality, anti-feedant effect or growth inhibition) at 200 ppm [7] | mortality at 50 ppm [9] | mortality at 200 ppm [10]

CC(NC(=O)c1cc(OC(F)F)cc(C(F)(F)F)c1)c1nccnc1-c1ncccn1 (centres unmarked) [Compound P23, 3-(difluoromethoxy)-N-[1-(3-pyrimidin-2-ylpyrazin-2-yl)ethyl]-5-(trifluoromethyl)benzamide]
≥ 80%: percent control (mortality or growth inhibition) at 200 ppm [1] | mortality at 500 ppm [2] | mortality at 12 ppm [3] | mortality at 200 ppm [11] | percent control (mortality, anti-feeding or growth inhibition) at 12.5 ppm [12] | percent control (mortality, anti-feedant effect or growth inhibition) at 200 ppm [4] | percent control (mortality or growth inhibition) at 200 ppm [5] | percent control (mortality or growth inhibition) at 200 ppm [6] | mortality at 200 ppm [13] | percent control (mortality, anti-feedant effect or growth inhibition) at 200 ppm [7] | mortality at 24 ppm [14] | mortality at 50 ppm [9]
